Assays:
[1] = tested on: E. coli; assay: AATCC Test Method 100 quantitative antibacterial test (bacterial reduction); type: cell-based, Escherichia coli (ATCC 2666); settings: Anti-1 4%, contact time 60 min
From the text: (§1) AATCC Test Method 100 was adopted in this study. According to this test method, four pieces of staked circular fabric swatches 4.8±0.1 (about one grams) were inoculated with 1.0±0.1 milliliter of inoculum in a 250 milliliter jar. The inoculum was a nutrient broth culture containing over 1.0×10^6 clone forming units (CFU) of organisms. After the swatches were inoculated, they were neutralized by 100 milliliter of a 0.02% sodium thiosulfate solution in the jar. The contact time was the time between inoculation and neutralization. The jar was vigorously shaken and the neutralized solution was diluted in serial. The dilutions, usually 100, 101, and 102, were plated on nutrient agar and incubated for 18-24 hours at 37° C. The number of bacteria recovered from the inoculated finished fabrics was counted and compared with that from untreated fabrics. Six log reduction means the total inactivation of bacteria, and one log reduction means that finished fabrics reduced bacteria counts from 106 CFU to 105 CFU.
(§2) Finished fabrics prepared from solutions containing 1%-6% of monomethylol-5,5-dimethylhydantoin following the protocol set forth in Example 1 with pickup rates below 1% have been tested.
(§3) Fabrics finished in accordance with the protocol set forth in Example II with Anti-2, i.e., 1,3-dimethylol-5,5-dimethylhydantoin, were also tested with AATCC test method 100, which was briefly described in Example IV. In the tests, a diluted CLOROX® solution containing 0.01 % active chlorine was used to chlorinate the finished fabrics.

[2] = tested on: S. aureus; assay: as above; type: cell-based, Staphylococcu aureus (ATCC 5368); settings: for Bacterial Reduction Rates After fifteen washings S. aur. / Bacterial Reduction Rates After five Washings S. aur. / Bacterial Reduction Rates After ten Washings S. aur. / Bacterial Reduction Rates After twenty washings S. aur.: contact time 60 min
From the text: as §1, §2, §3

[3] = tested on: E. coli; assay: AATCC Test Method 147 qualitative antibacterial test (inhibition zone); type: cell-based, Escherichia coli (ATCC 2666)
From the text: (§4) Fabric samples of #405 (pure cotton, Testfabrics, Inc., Middlesex, N.J.) and # 7402 (cotton/polyester 35/65, Testfabrics, Inc., Middlesex, N.J.) were finished in a manner similar to that set forth in Example I. The concentration of the finishing agent used was from about 5 to 15% in the finishing of the cotton fabrics and from about 5 to 20% in the finishing of the cotton/polyester (35/65) blend fabric because of the lower concentration of cellulose in the blend. The final biocidal property was imparted onto the finished fabrics by washing them with a diluted CLOROX® solution containing 0.25% chlorine after each washing circle. Qualitative antibacterial tests were conducted according to AATCC Test Method 147.
(§5) In the AATCC Test Method 147, two pieces of chlorinated fabrics with the size of 25 mm×50 mm were placed on a nutrient agar plate which had been inoculated by five streaks of a diluted bacteria solution using a 4 mm inoculating loop. The diluted bacteria solution was prepared by transferring 1.0 milliliter of 24 hour broth culture into 9.0 milliliter of sterile distilled water. The agar plate was incubated at 37° C. for 18-24 hours. The minimum width of inhibition zone along a streak on either side of the test specimen are measured. Table I sets forth the qualitative biocidal evaluations of the finished fabrics with different concentration of the agent Anti-1.

[4] = tested on: S. aureus; assay: as above; type: cell-based, Staphylococcu aureus (ATCC 5368)
[5] = tested on: E. coli; assay: as above; type: cell-based, Escherichia coli (ATCC 2666); remark: listed apart in the source
[6] = tested on: S. aureus; assay: as above; type: cell-based, Staphylococcu aureus (ATCC 5368); remark: listed apart in the source
From the text: as §4, §5

[7] = Anti-1 1%, #7402, take up 0.14%
[8] = Anti-1 2%, #7402, take up 0.07%
[9] = Anti-1 4%, #7402, take up 0.45%
[10] = Anti-1 6%, #7402, take up 0.70%
[11] = #405 cotton, Anti-1 5%, add-on 1.2%
[12] = #405 cotton, Anti-1 10%, add-on 2.3%
[13] = #405 cotton, Anti-1 15%, add-on 3.1%
[14] = #7402 cotton/polyester 35/65, Anti-1 5%, add-on 0.8%
[15] = #7402 cotton/polyester 35/65, Anti-1 10%, add-on 1.4%
[16] = #7402 cotton/polyester 35/65, Anti-1 15%, add-on 1.6%
[17] = #7402 cotton/polyester 35/65, Anti-1 20%, add-on 2.0%
[18] = Dacron/Cotton 65/35 #7402, add-on 1.19%
[19] = Terry cloth 100% Cotton, add-on 1.40%
[20] = Cotton cloth #400, add-on 1.43%

CC1(C)NC(=O)N(CO)C1=O [Anti-1, monomethylol-5,5-dimethylhydantoin]
Bacterial Reduction Rates After fifteen washings E. coli ([1]; Cl 0.01%, #400): 6 log
Bacterial Reduction Rates After five Washings E. coli ([1]; Cl 0.01%, #400): 6 log
Bacterial Reduction Rates After ten Washings E. coli ([1]; Cl 0.01%, #400): 6 log
Bacterial Reduction Rates After twenty washings E. coli ([1]; Cl 0.01%, #400): 6 log
Bacterial Reduction Rates After fifteen washings E. coli ([1]; Cl 0.01%, #7409): 6 log
Bacterial Reduction Rates After five Washings E. coli ([1]; Cl 0.01%, #7409): 6 log
Bacterial Reduction Rates After ten Washings E. coli ([1]; Cl 0.01%, #7409): 6 log
Bacterial Reduction Rates After twenty washings E. coli ([1]; Cl 0.01%, #7409): 6 log
Bacterial Reduction Rates After fifteen washings E. coli ([1]; Cl 0.1%, #400): 6 log
Bacterial Reduction Rates After five Washings E. coli ([1]; Cl 0.1%, #400): 6 log
Bacterial Reduction Rates After ten Washings E. coli ([1]; Cl 0.1%, #400): 6 log
Bacterial Reduction Rates After twenty washings E. coli ([1]; Cl 0.1%, #400): 1 log
Bacterial Reduction Rates After fifteen washings E. coli ([1]; Cl 0.1%, #7409): 6 log
Bacterial Reduction Rates After five Washings E. coli ([1]; Cl 0.1%, #7409): 6 log
Bacterial Reduction Rates After ten Washings E. coli ([1]; Cl 0.1%, #7409): 6 log
Bacterial Reduction Rates After twenty washings E. coli ([1]; Cl 0.1%, #7409): 6 log
Bacterial Reduction Rates After fifteen washings E. coli ([1]; Cl 0.25%, #400): 1 log
Bacterial Reduction Rates After five Washings E. coli ([1]; Cl 0.25%, #400): 6 log
Bacterial Reduction Rates After ten Washings E. coli ([1]; Cl 0.25%, #400): 2 log
Bacterial Reduction Rates After twenty washings E. coli ([1]; Cl 0.25%, #400): 1 log
Bacterial Reduction Rates After fifteen washings E. coli ([1]; Cl 0.25%, #7409): 6 log
Bacterial Reduction Rates After five Washings E. coli ([1]; Cl 0.25%, #7409): 6 log
Bacterial Reduction Rates After ten Washings E. coli ([1]; Cl 0.25%, #7409): 6 log
Bacterial Reduction Rates After twenty washings E. coli ([1]; Cl 0.25%, #7409): 1 log
Bacterial reduction rates on contact time 0 min S. aureus ([2]; Anti-1 1%, #400, take up 0.65%): No
Bacterial reduction rates on contact time 30 min S. aureus ([2]; Anti-1 1%, #400, take up 0.65%): 1 log
Bacterial reduction rates on contact time 60 min S. aureus ([2]; Anti-1 1%, #400, take up 0.65%): No
Bacterial reduction rates on contact time 0 min S. aureus [2, 7]: No
Bacterial reduction rates on contact time 30 min S. aureus [2, 7]: No
Bacterial reduction rates on contact time 60 min S. aureus [2, 7]: No
Bacterial reduction rates on contact time 0 min S. aureus ([2]; Anti-1 2%, #400, take up 0.03%): 1 log
Bacterial reduction rates on contact time 30 min S. aureus ([2]; Anti-1 2%, #400, take up 0.03%): 6 log
Bacterial reduction rates on contact time 60 min S. aureus ([2]; Anti-1 2%, #400, take up 0.03%): 6 log
Bacterial reduction rates on contact time 0 min S. aureus [2, 8]: No
Bacterial reduction rates on contact time 30 min S. aureus [2, 8]: 1 log
Bacterial reduction rates on contact time 60 min S. aureus [2, 8]: 6 log
Bacterial reduction rates on contact time 0 min S. aureus ([2]; Anti-1 4%, #400, take up 0.47%): 6 log
Bacterial reduction rates on contact time 30 min S. aureus ([2]; Anti-1 4%, #400, take up 0.47%): 6 log
Bacterial reduction rates on contact time 60 min S. aureus ([2]; Anti-1 4%, #400, take up 0.47%): 6 log
Bacterial reduction rates on contact time 0 min S. aureus [2, 9]: 6 log
Bacterial reduction rates on contact time 30 min S. aureus [2, 9]: 6 log
Bacterial reduction rates on contact time 60 min S. aureus [2, 9]: 6 log
Bacterial reduction rates on contact time 0 min S. aureus ([2]; Anti-1 6%, #400, take up 0.70%): 6 log
Bacterial reduction rates on contact time 30 min S. aureus ([2]; Anti-1 6%, #400, take up 0.70%): 6 log
Bacterial reduction rates on contact time 60 min S. aureus ([2]; Anti-1 6%, #400, take up 0.70%): 6 log
Bacterial reduction rates on contact time 0 min S. aureus [2, 10]: 6 log
Bacterial reduction rates on contact time 30 min S. aureus [2, 10]: 6 log
Bacterial reduction rates on contact time 60 min S. aureus [2, 10]: 6 log
Bacterial Reduction Rates After fifteen washings S. aur. ([2]; Cl 0.01%, #400, Anti-1 4%): 6 log
Bacterial Reduction Rates After five Washings S. aur. ([2]; Cl 0.01%, #400, Anti-1 4%): 6 log
Bacterial Reduction Rates After ten Washings S. aur. ([2]; Cl 0.01%, #400, Anti-1 4%): 6 log
Bacterial Reduction Rates After twenty washings S. aur. ([2]; Cl 0.01%, #400, Anti-1 4%): 6 log
Bacterial Reduction Rates After fifteen washings S. aur. ([2]; Cl 0.01%, #7409, Anti-1 4%): 6 log
Bacterial Reduction Rates After five Washings S. aur. ([2]; Cl 0.01%, #7409, Anti-1 4%): 6 log
Bacterial Reduction Rates After ten Washings S. aur. ([2]; Cl 0.01%, #7409, Anti-1 4%): 6 log
Bacterial Reduction Rates After twenty washings S. aur. ([2]; Cl 0.01%, #7409, Anti-1 4%): 6 log
Bacterial Reduction Rates After fifteen washings S. aur. ([2]; Cl 0.1%, #400, Anti-1 4%): 6 log
Bacterial Reduction Rates After five Washings S. aur. ([2]; Cl 0.1%, #400, Anti-1 4%): 6 log
Bacterial Reduction Rates After ten Washings S. aur. ([2]; Cl 0.1%, #400, Anti-1 4%): 6 log
Bacterial Reduction Rates After twenty washings S. aur. ([2]; Cl 0.1%, #400, Anti-1 4%): 0 log
Bacterial Reduction Rates After fifteen washings S. aur. ([2]; Cl 0.1%, #7409, Anti-1 4%): 6 log
Bacterial Reduction Rates After five Washings S. aur. ([2]; Cl 0.1%, #7409, Anti-1 4%): 6 log
Bacterial Reduction Rates After ten Washings S. aur. ([2]; Cl 0.1%, #7409, Anti-1 4%): 6 log
Bacterial Reduction Rates After twenty washings S. aur. ([2]; Cl 0.1%, #7409, Anti-1 4%): 6 log
Bacterial Reduction Rates After fifteen washings S. aur. ([2]; Cl 0.25%, #400, Anti-1 4%): 0 log
Bacterial Reduction Rates After five Washings S. aur. ([2]; Cl 0.25%, #400, Anti-1 4%): 6 log
Bacterial Reduction Rates After ten Washings S. aur. ([2]; Cl 0.25%, #400, Anti-1 4%): 0 log
Bacterial Reduction Rates After twenty washings S. aur. ([2]; Cl 0.25%, #400, Anti-1 4%): 0 log
Bacterial Reduction Rates After fifteen washings S. aur. ([2]; Cl 0.25%, #7409, Anti-1 4%): 6 log
Bacterial Reduction Rates After five Washings S. aur. ([2]; Cl 0.25%, #7409, Anti-1 4%): 6 log
Bacterial Reduction Rates After ten Washings S. aur. ([2]; Cl 0.25%, #7409, Anti-1 4%): 6 log
Bacterial Reduction Rates After twenty washings S. aur. ([2]; Cl 0.25%, #7409, Anti-1 4%): 1 log
Biocidal Results After 20 Times Washing E. coli [3, 11]: >3 mm
Biocidal Results After 50 Times Washing E. coli [3, 11]: >1 mm
Biocidal Results After 20 Times Washing E. coli [3, 12]: >8 mm
Biocidal Results After 50 Times Washing E. coli [3, 12]: >3 mm
Biocidal Results After 20 Times Washing E. coli [3, 13]: kill all
Biocidal Results After 50 Times Washing E. coli [3, 13]: >4 mm
Biocidal Results After 20 Times Washing E. coli [3, 14]: >3 mm
Biocidal Results After 50 Times Washing E. coli [3, 14]: >1 mm
Biocidal Results After 20 Times Washing E. coli [3, 15]: >3 mm
Biocidal Results After 50 Times Washing E. coli [3, 15]: >2 mm
Biocidal Results After 20 Times Washing E. coli [3, 16]: kill all
Biocidal Results After 50 Times Washing E. coli [3, 16]: >2 mm
Biocidal Results After 20 Times Washing E. coli [3, 17]: kill all
Biocidal Results After 50 Times Washing E. coli [3, 17]: >3 mm
Biocidal results against S. aureus after being activated [4, 18]: >4.0 mm
Biocidal results against S. aureus after being activated ([4]; Rayon, add-on 1.21%): >1.0 mm
Biocidal results against S. aureus after being activated [4, 19]: kill all
Biocidal results against E. coli after being activated [5, 20]: >2.0 mm
Biocidal results against E. coli after being activated [5, 18]: >10 mm
Biocidal results against E. coli after being activated ([5]; Rayon, add-on 1.21%): >1.0 mm
Biocidal results against E. coli after being activated [5, 19]: >10 mm
Biocidal Results After 20 Times Washing S. aureus [6, 11]: >1 mm
Biocidal Results After 50 Times Washing S. aureus [6, 11]: ˜1 mm
Biocidal Results After 20 Times Washing S. aureus [6, 12]: >3 mm
Biocidal Results After 50 Times Washing S. aureus [6, 12]: >1 mm
Biocidal Results After 20 Times Washing S. aureus [6, 13]: kill all
Biocidal Results After 50 Times Washing S. aureus [6, 13]: >4 mm
Biocidal Results After 20 Times Washing S. aureus [6, 14]: >1 mm
Biocidal Results After 50 Times Washing S. aureus [6, 14]: ˜1 mm
Biocidal Results After 20 Times Washing S. aureus [6, 15]: >1 mm
Biocidal Results After 50 Times Washing S. aureus [6, 15]: ˜1 mm
Biocidal Results After 20 Times Washing S. aureus [6, 16]: kill all
Biocidal Results After 50 Times Washing S. aureus [6, 16]: >1 mm
Biocidal Results After 20 Times Washing S. aureus [6, 17]: >4 mm
Biocidal Results After 50 Times Washing S. aureus [6, 17]: >1 mm
Biocidal results against S. aureus after being activated [6, 20]: >1.0 mm

— US6770287B1, “Biocidal cellulosic material” (The Regents of the University of California, priority 2000, dated 2004)
